In patent US20250100968A1, “BICYCLIC-HETEROCYCLE DERIVATIVES AND RELATED USES” (CENTESSA PHARMACEUTICALS (UK) LIMITED, priority 2022, published 2025):
Read-outs that look alike come from different tables or passages of the source.

How the values were obtained:
[1] = biological target: T1, OX2R (Homo sapiens, UniProt O43614); settings: individuals with NT1; initial clinical studies; cited from earlier work
T1 construct: host or cells: individuals with NT1
T1 sequence (O43614 1-444): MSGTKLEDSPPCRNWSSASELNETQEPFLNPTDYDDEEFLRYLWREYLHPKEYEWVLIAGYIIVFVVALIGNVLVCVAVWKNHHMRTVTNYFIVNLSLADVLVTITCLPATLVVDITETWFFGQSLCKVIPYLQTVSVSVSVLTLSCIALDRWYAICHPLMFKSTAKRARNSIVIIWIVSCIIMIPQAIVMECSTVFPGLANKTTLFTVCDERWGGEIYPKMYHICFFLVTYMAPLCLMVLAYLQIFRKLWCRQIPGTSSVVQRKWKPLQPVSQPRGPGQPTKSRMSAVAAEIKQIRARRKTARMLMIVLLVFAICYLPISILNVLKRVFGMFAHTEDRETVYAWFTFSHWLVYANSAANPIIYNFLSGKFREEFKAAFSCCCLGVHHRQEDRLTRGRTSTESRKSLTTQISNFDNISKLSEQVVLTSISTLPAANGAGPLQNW

[2] = biological target: T2, OX2R (Mus musculus, UniProt P58308); settings: cited from earlier work
T2 construct: host or cells: mice (WT, orexin-deficient, orexin-neuron ablated)
T2 sequence (P58308 1-460): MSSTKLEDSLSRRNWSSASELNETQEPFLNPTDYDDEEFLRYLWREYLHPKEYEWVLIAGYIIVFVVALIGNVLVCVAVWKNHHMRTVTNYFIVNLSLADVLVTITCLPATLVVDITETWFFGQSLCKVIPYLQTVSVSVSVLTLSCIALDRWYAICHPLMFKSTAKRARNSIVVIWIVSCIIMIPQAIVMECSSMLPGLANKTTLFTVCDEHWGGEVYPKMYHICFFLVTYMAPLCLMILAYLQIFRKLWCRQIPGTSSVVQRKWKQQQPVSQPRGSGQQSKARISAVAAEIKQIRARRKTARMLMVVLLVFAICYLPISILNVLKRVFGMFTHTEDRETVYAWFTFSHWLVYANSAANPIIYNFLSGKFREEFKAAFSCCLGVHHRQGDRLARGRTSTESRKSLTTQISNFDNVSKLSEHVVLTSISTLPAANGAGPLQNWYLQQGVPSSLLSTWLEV

[3] = biological target: T3, human orexin type 2 receptor (hOX2R) (Homo sapiens, UniProt O43614); assay: cell-based;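 further: agonist activity in CHO cells stably expressing hOX2R, intracellular Ca2+ via Calcium 5 dye fluorescence area over 2 min, buffer-only as 0% and 10 nM orexin A as 100%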
T3 sequence (O43614 1-444): T1 sequence (O43614 1-444)
Method: Measurement of orexin type 2 receptor agonist activity. […] After removal of the medium, 50 μl of assay buffer 1 (0.1% bovine serum albumin (Sigma Aldrich), 20 mM HEPES (Molecular Dimensions), 250 mM probenecid (Sigma Aldrich), 1× Calcium 5 dye (Molecular Devices) in Hank's balanced salt solution (Invitrogen)) was added, and the cells were incubated for 60 min under the conditions of 37° C., 5% CO2. A test compound was dissolved in dimethyl sulfoxide (Sigma Aldrich) to 10 mM, and then diluted with assay buffer 2 (20 mM HEPES, Hank's balanced salt solution, 0.1% bovine serum albumin). For the reaction, a test compound solution (10 μl) was added using Fluorescent Imaging Plate Reader TETRA (FLIPR TETRA: manufactured by Molecular Devices), a fluorescence value (excitation wavelength 488 nm, measurement wavelength 570 nm) of each well was measured every one second for 2 min, and the agonist activity was determined using the area of the fluorescence value as an indicator of intracellular Ca^2+ concentration. The agonist activity of the test compound was calculated assuming that the fluorescence value of the well added with only the dilution buffer was 0% and the fluorescence value of the well added with 10 nM human orexin A (Tocris) buffer was 100%.

For `COC(=O)N1CCC[C@H](NS(C)(=O)=O)[C@@H]1CO[C@H]1CC[C@@H](c2ccccc2)CC1` [TAK-925], which cataplexy [1] is on record?
Its cataplexy is “trends for decreasing cataplexy”.

What about the wakefulness [1] of the same molecule?
Its wakefulness is “substantial levels of increased wakefulness”.

What about the wakefulness ([2]; subcutaneous administration, WT mice) of the same molecule?
The wakefulness was “modestly increased wakefulness”.

With `COc1ccc(-c2cccc(C(=O)N(C)C)c2)cc1S(=O)(=O)Nc1cccc(NCCNC(=O)c2ccccc2N(C)C)c1` [YNT-185] as the molecule, how does the “sleep-onset REM periods and cataplexy-like events” value ([2]; intraperitoneally or ICV, NT1 mouse model) read?
Its value is “decrease sleep-onset REM periods and cataplexy-like events”.

What about the wakefulness ([2]; intraperitoneally or ICV, wild type (WT) and orexin ligand-deficient mice) of the same molecule?
The wakefulness was “modestly increases wakefulness”.

Which EC50 [3] does the source give for `N#C[C@]1(C(=O)N2CC3(CC3)[C@H](NS(=O)(=O)CF)[C@@H]2Cc2cccc(-c3cc(F)ccc3F)c2F)CCO1` [compound 80, N-((6S,7S)-5-((S)-2-cyanooxetane-2-carbonyl)-6-((2,2′,5′-trifluoro-[1,1′-biphenyl]-3-yl)methyl)-5-azaspiro[2.4]heptan-7-yl)-1-fluoromethanesulfonamide] here?
The EC50 was 0.0631 to 1 nM.

With `O=C(N1CC2(CC2)[C@H](NS(=O)(=O)CF)[C@@H]1Cc1cccc(-c2ccccc2)c1F)C1(CF)COC1` [compound 81, 1-fluoro-N-((6S,7S)-6-((2-fluoro-[1,1′-biphenyl]-3-yl)methyl)-5-(3-(fluoromethyl)oxetane-3-carbonyl)-5-azaspiro[2.4]heptan-7-yl)methanesulfonamide] as the molecule, how does the EC50 [3] read?
The EC50 was 1 to 10 nM.

For `CC(C)NC(=O)N1CC2(CC2)[C@H](NS(=O)(=O)CF)[C@@H]1Cc1cccc(-c2ccccc2)c1F` [compound 82, (6S,7S)-6-((2-fluoro-[1,1′-biphenyl]-3-yl)methyl)-7-((fluoromethyl)sulfonamido)-N-isopropyl-5-azaspiro[2.4] heptane-5-carboxamide], which EC50 [3] is on record?
Its EC50 is 1 to 10 nM.

For `C[C@@](O)(CF)C(=O)N1CC2(CC2)[C@H](NS(=O)(=O)CF)[C@@H]1Cc1cccc(-c2cc(F)cc(F)c2)c1F` [compound 83, 1-fluoro-N-((6S,7S)-5-((S)-3-fluoro-2-hydroxy-2-methylpropanoyl)-6-((2,3′,5′-trifluoro-[1,1′-biphenyl]-3-yl)methyl)-5-azaspiro[2.4]heptan-7-yl)methanesulfonamide], which EC50 [3] is on record?
Its EC50 is 1 to 10 nM.

Which EC50 [3] does the source give for `C[C@](O)(C(=O)N1CC2(CC2)[C@H](NS(=O)(=O)CF)[C@@H]1Cc1cc(F)cc(-c2ccccc2)c1F)C(F)F` [compound 84, N-((6S,7S)-5-((S)-3,3-difluoro-2-hydroxy-2-methylpropanoyl)-6-((2,5-difluoro-[1,1′-biphenyl]-3-yl)methyl)-5-azaspiro[2.4]heptan-7-yl)-1-fluoromethanesulfonamide] here?
The EC50 was 1 to 10 nM.

With `N#C[C@]1(C(=O)N2CC3(CC3)[C@H](NS(=O)(=O)CF)[C@@H]2Cc2cc(F)cc(-c3ccccc3)c2F)CCO1` [compound 85, N-((6S,7S)-5-((S)-2-cyanooxetane-2-carbonyl)-6-((2,5-difluoro-[1,1′-biphenyl]-3-yl)methyl)-5-azaspiro[2.4]heptan-7-yl)-1-fluoromethanesulfonamide] as the molecule, how does the EC50 [3] read?
The EC50 was 1 to 10 nM.

Which EC50 [3] does the source give for `C[C@H](CF)NC(=O)N1CC2(CC2)[C@H](NS(=O)(=O)C2(F)CC2)[C@@H]1Cc1cccc(-c2ccccc2)c1F` [compound 86, (6S,7S)-6-((2-fluoro-[1,1′-biphenyl]-3-yl)methyl)-7-((1-fluorocyclopropane)-1-sulfonamido)-N-((R)-1-fluoropropan-2-yl)-5-azaspiro[2.4]heptane-5-carboxamide] here?
The EC50 was 0.0631 to 1 nM.

With `O=C([C@H]1CCO1)N1CC2(CC2)[C@H](NS(=O)(=O)C2(F)CC2)[C@@H]1Cc1cc(F)cc(-c2ccccc2)c1F` [compound 87, N-((6S,7S)-6-((2,5-difluoro-[1,1′-biphenyl]-3-yl)methyl)-5-((R)-oxetane-2-carbonyl)-5-azaspiro[2.4]heptan-7-yl)-1-fluorocyclopropane-1-sulfonamide] as the molecule, how does the EC50 [3] read?
Its EC50 is 1 to 10 nM.

With `C[C@@H](NC(=O)N1CC2(CC2)[C@H](NS(=O)(=O)CF)[C@@H]1Cc1cc(F)cc(-c2ccccc2)c1F)C(F)F` [compound 88, (6S,7S)-6-((2,5-difluoro-[1,1′-biphenyl]-3-yl)methyl)-N-((R)-1,1-difluoropropan-2-yl)-7-((fluoromethyl)sulfonamido)-5-azaspiro[2.4]heptane-5-carboxamide] as the molecule, how does the EC50 [3] read?
Its EC50 is 1 to 10 nM.

Which EC50 [3] does the source give for `N#C[C@]1(C(=O)N2CC3(CC3)[C@H](NS(=O)(=O)CF)[C@@H]2Cc2cc(F)cc(-c3ccccc3)c2F)C[C@H](F)C1` [compound 89, N-((6S,7S)-5-((1r,3S)-1-cyano-3-fluorocyclobutane-1-carbonyl)-6-((2,5-difluoro-[1,1′-biphenyl]-3-yl)methyl)-5-azaspiro[2.4]heptan-7-yl)-1-fluoromethanesulfonamide] here?
Its EC50 is 1 to 10 nM.

With `N#C[C@]1(C(=O)N2CC3(CC3)[C@H](NS(=O)(=O)CF)[C@@H]2Cc2cc(F)cc(-c3ccccc3)c2F)C[C@@H](F)C1` [compound 90, N-((6S,7S)-5-((1s,3R)-1-cyano-3-fluorocyclobutane-1-carbonyl)-6-((2,5-difluoro-[1,1′-biphenyl]-3-yl)methyl)-5-azaspiro[2.4]heptan-7-yl)-1-fluoromethanesulfonamide] as the molecule, how does the EC50 [3] read?
Its EC50 is 1 to 10 nM.

For `C[C@](O)(CF)C(=O)N1CC2(CC2)[C@H](NS(=O)(=O)C2(F)CC2)[C@@H]1Cc1cccc(-c2ccccc2)c1F` [compound 91, 1-fluoro-N-((6S,7S)-5-((R)-3-fluoro-2-hydroxy-2-methylpropanoyl)-6-((2-fluoro-[1,1′-biphenyl]-3-yl)methyl)-5-azaspiro[2.4]heptan-7-yl)cyclopropane-1-sulfonamide], which EC50 [3] is on record?
Its EC50 is 0.0631 to 1 nM.
